US8420696B2, “Use of low-dose ladostigil for neuroprotection” (priority 2005, dated 2013)

How the values were obtained:
[1] = test system: memory deficits after icv injections of STZ; settings: chronic treatment; cited from earlier work
[2] = test system: rats injected icv with Aβ(1-40); settings: cited from earlier work
[3] = test system: MAO-B; experiment: In vivo MAO inhibition assay (MAO-B); parameters: species or system Rats and mice
Procedure: (§1) The level of MAO (MAO-A and MAO-B) inhibition can be determined by routine methods, including those detailed below.
(§2) Rats and mice are treated by subcutaneous (s.c.) or intraperitoneal (i.p.) injection or oral (p.o.) administration of the compound to be tested. Animals are decapitated approximately 2 hours after drug treatment and MAO activity is determined in the brain, intestine, and/or liver. MAO activity is expressed as percentage of enzyme activity relative to a control group administered with vehicle only. Effective doses producing 50% MAO inhibition (ED50 values) are calculated from inhibition curves.
(§3) Repeated treatment by ladostigil (e.g. daily doses for 7 days) can be used to calculate inhibition achieved through chronic administration.

[4] = test system: MAO-A; experiment: In vivo MAO inhibition assay (MAO-A); parameters: species or system Rats and mice
Procedure: as §1, §2, §3

[5] = test system: ChE; experiment: In vivo ChE inhibition assay; parameters: species or system cynomolgus monkeys; settings: acute or chronic administration, amounts up to 7.0 mg/kg ladostigil base
Procedure: The level of ChE inhibition can be determined by routine methods, including those detailed below.
In vivo measurement of ChE inhibition is similar to that of in vivo measurement of MAO inhibition, except that cynomolgus monkeys are treated, and tissues are examined for brain, plasma and erythrocytes ChE inhibition.

[6] = acute administration, amounts up to 20.4 mg/kg of ladostigil base
[7] = chronic administration, amounts up to 4.5 mg/kg of ladostigil base

Q: With Oc1ccc(C=Cc2cc(O)cc(O)c2)cc1 [resveratrol] as the molecule, how does the “Memory deficits 3-8 weeks after icv STZ” value [1] read?
A: Its value is “can be reduced”.

Q: For CC12CC3CC(C)(C1)CC(N)(C3)C2 [memantine], which “Activation of microglia and astrocytes and memory deficits after icv Aβ(1-40)” value [2] is on record?
A: Its value is “reduced the activation of microglia and astrocytes and the memory deficits”.

Q: With COc1ccc2[nH]cc(CCNC(C)=O)c2c1 [melatonin] as the molecule, how does the “Memory deficits 3-8 weeks after icv STZ” value [1] read?
A: Its value is “can be reduced”.

Q: What does the source list for “R(+)-6-(N-methyl,N-ethyl-carbamoyloxy)-N′-propargyl-1-aminoindan [ladostigil tartrate]”?
A: MAO inhibition (MAO-B) [3, 6]: no more than 25%; MAO inhibition (MAO-B) [3, 7]: no more than 25%; MAO inhibition (MAO-A) [4, 6]: no more than 25%; MAO inhibition (MAO-A) [4, 7]: no more than 25%; ChE inhibition [5]: no more than 30%
